From patent US20170280720A1, “ARGININE […] INHIBITORS AND USES THEREOF” (EPIZYME, INC., priority 2014, published 2017)

The compounds below were run against T1, Human CARM1 (PRMT4) (Homo sapiens, UniProt Q86X55) (assay: CARM1 biochemical assay (3H-SAM Flashplate, peptide substrate)). Conditions: read-out: CARM1_ IC50.
T1 construct: Flag-CARM1-His; made in house; host or cells: HEK 293F cells (BacMam baculovirus, pFastBacMam)
T1 sequence (Q86X55 2-585 isoform Q86X55-1): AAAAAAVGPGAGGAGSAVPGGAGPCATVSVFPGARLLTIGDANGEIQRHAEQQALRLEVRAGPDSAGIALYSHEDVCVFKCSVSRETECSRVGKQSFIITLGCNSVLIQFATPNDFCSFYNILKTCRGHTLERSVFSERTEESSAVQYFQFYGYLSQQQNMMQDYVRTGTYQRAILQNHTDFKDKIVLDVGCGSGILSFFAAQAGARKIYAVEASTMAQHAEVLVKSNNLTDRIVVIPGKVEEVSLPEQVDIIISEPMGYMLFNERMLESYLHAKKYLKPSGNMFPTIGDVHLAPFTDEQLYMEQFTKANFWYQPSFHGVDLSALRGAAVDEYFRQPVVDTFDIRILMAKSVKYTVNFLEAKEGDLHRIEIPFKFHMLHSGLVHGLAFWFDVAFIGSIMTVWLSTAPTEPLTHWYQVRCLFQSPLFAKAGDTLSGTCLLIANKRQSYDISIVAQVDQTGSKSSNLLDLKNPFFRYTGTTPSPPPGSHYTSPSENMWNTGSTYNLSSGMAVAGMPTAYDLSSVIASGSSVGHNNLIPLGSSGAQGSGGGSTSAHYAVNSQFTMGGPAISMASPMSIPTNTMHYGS
Outline: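 FLAG/His-tagged human CARM1 (isoform 1, Δ539-561, baculovirus-expressed), 0.25 nM, preincubated 30 min at room temperature with compound (2% DMSO) in 20 mM Bicine pH 7.6, then reacted with 30 nM 3H-SAM and 250 nM biotinylated H3 16-30 peptide (R26 monomethyl). Stopped with 300 uM cold SAM; labelled peptide captured on streptavidin Flashplate; % inhibition versus DMSO and 1 mM SAH controls fitted to a 4- or 3-parameter curve.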

Point of comparison: `CNCCN(C)Cc1cccc(-c2ccc3c(c2)ncn3C(C)C)c1` [Compound 36], IC50 15.8 µM. Against it:
- CN(CCN)Cc1cccc(-c2nc(NCc3nccs3)c3cnn(C4CC4)c3n2)c1 [Compound 1] — 4400-fold lower, 0.00356 µM
- CC(C)n1ncc2c(C(=O)N[C@@H](C)c3ccccc3)cc(-c3cccc(CN(C)CCN)c3)cc21 [Compound 10] — 350-fold lower, 0.0452 µM
- CNCCN(C)Cc1cccc(-c2cc(NC3CC3)c3cnn(C(C)C)c3n2)c1 [Compound 11] — 480-fold lower, 0.0328 µM
- CNCCN(C)Cc1cccc(-c2cc(C(=O)N[C@@H](C)c3ccccc3)c3cn[nH]c3n2)c1 [Compound 12] — 200-fold lower, 0.0793 µM
- CC(C)n1cc2c(N)cc(-c3cccc(CN(C)CCN)c3)nc2n1 [Compound 13] — 9.2-fold lower, 1.71 µM
- CC(C)n1ncc2c(C(=O)NCc3ccccc3)cc(-c3cccc(CN(C)CCN)c3)cc21 [Compound 14] — 120-fold lower, 0.135 µM
- Cc1c(C(=O)NCc2ccccc2)cc(-c2cccc(CN(C)CCN)c2)c2cn[nH]c12 [Compound 15] — 16-fold lower, 0.973 µM
- COc1ccc(Cn2cnc3ccc(-c4ccc(CN(C)CCN)cc4)cc32)cc1 [Compound 16] — 3.9-fold lower, 4.08 µM
- CNCCN(C)Cc1cccc(-c2nc(NCc3cc(C)nn3C)c3cnn(C4CC4)c3n2)c1 [Compound 17] — 1900-fold lower, 0.00842 µM
- CN(CCN)Cc1cccc(-c2nc(NC3CCOCC3)c3cnn(C(C)(C)C)c3n2)c1 [Compound 18] — 2700-fold lower, 0.00583 µM
- CN(CCN)Cc1ccc(-c2ccc3ncn(-c4ccccc4)c3c2)cc1 [Compound 19] — within 1.5-fold, 12.6 µM
- CNCCN(C)Cc1cccc(-c2cc(Nc3ncc(C)s3)c3cnn(C(C)C)c3n2)c1 [Compound 20] — 1100-fold lower, 0.014 µM
- CNCCN(C)Cc1cccc(-c2cc(C(=O)NCC3CCOCC3)c3cnn(C4CCC4)c3n2)c1 [Compound 21] — 360-fold lower, 0.0439 µM
- Cc1nn(C(C)C)c2nc(-c3cccc(CN(C)CCN)c3)cc(N3CCOCC3)c12 [Compound 22, N1-(3-(1-isopropyl-3-methyl-4-morpholino-1H-pyrazolo[3,4-b]pyridin-6-yl)benzyl)-N1-methylethane-1,2-diamine] — 1800-fold lower, 0.00897 µM
- CC(C)n1ncc2c(C(=O)N3CCc4ccccc4C3)cc(-c3cccc(CN(C)CCN)c3)nc21 [Compound 23] — 85-fold lower, 0.185 µM
- CNCCN(C)Cc1cccc(-c2cc(C(=O)N(C)Cc3ccccc3)c3cnn(C(C)C)c3n2)c1 [Compound 24] — 220-fold lower, 0.0713 µM
- CC(C)n1ncc2c(C(=O)NCc3ccc(F)cc3)cc(-c3cccc(CN(C)CCN)c3)nc21 [Compound 25] — 480-fold lower, 0.0329 µM
- CNCCN(C)Cc1cccc(-c2cc(C(=O)NCC3CCOCC3)c3cnn(C4CC4)c3n2)c1 [Compound 26] — 590-fold lower, 0.0266 µM
- CNCCN(C)Cc1cccc(-c2nc(NC3CCOCC3)c3cnn(C(C)(C)C)c3n2)c1 [Compound 27, N1-(3-(1-tert-butyl-4-(tetrahydro-2H-pyran-4-ylamino)-1H-pyrazolo[3,4-d]pyrimidin-6-yl)benzyl)-N1,N2-dimethylethane-1,2-diamine] — 3700-fold lower, 0.00425 µM
- CNCCN(C)Cc1cccc(-c2ccc3ncn(C(C)C)c3c2)c1 [Compound 28] — within 1.5-fold, 12.2 µM
- CNCCN(C)Cc1cccc(-c2cc(C(=O)NC3CCOCC3)c3cnn(C4CCC4)c3n2)c1 [Compound 29] — 170-fold lower, 0.0924 µM
- CNCCN(C)Cc1cccc(-c2ccc3ncn(C4CCOCC4)c3c2)c1 [Compound 30] — 19-fold lower, 0.852 µM
- CC(C)n1ncc2c(C(=O)N(C)Cc3ccccc3)cc(-c3cccc(CN(C)CCN)c3)nc21 [Compound 31] — 730-fold lower, 0.0217 µM
- CC(C)n1cnc2cc(-c3cccc(CN(C)CCN)c3)ccc21 [Compound 32] — 2.2-fold lower, 7.04 µM
- CCn1ncc2c(C(=O)N[C@@H](C)c3ccccc3)cc(-c3cccc(CN(C)CCNC)c3)nc21 [Compound 33] — 200-fold lower, 0.0797 µM
- CNCCN(C)Cc1cccc(-c2ccc3c(c2)ncn3CCOC)c1 [Compound 34] — 1.6-fold lower, 10 µM
- CNCCN(C)Cc1cccc(-c2ccc3cn(Cc4ccccc4)nc3n2)c1 [Compound 35] — 3.2-fold lower, 4.96 µM
- CC(C)n1ncc2c(C(=O)NCc3c(F)cccc3F)cc(-c3cccc(CN(C)CCN)c3)nc21 [Compound 37] — 2900-fold lower, 0.00547 µM
- CNCCN(C)Cc1cccc(-c2cc(C(=O)NCc3ccccc3F)c3cnn(C(C)C)c3n2)c1 [Compound 38] — 840-fold lower, 0.0187 µM
- CNCCN(C)Cc1cccc(-c2cnc3c(c2)c(Br)nn3CC2CCOCC2)c1 [Compound 39] — 2.3-fold lower, 6.79 µM
- CN(CCN)Cc1cccc(-c2nc(NCc3cccnc3)c3cnn(C4CC4)c3n2)c1 [Compound 40] — 2200-fold lower, 0.00714 µM
- CC(C)n1ncc2c(NC3CC3)cc(-c3cccc(CN(C)CCN)c3)nc21 [Compound 41] — 1200-fold lower, 0.0134 µM
- CNCCN(C)Cc1cccc(-c2cc(C(=O)N3CCc4ccccc4C3)c3cnn(C(C)C)c3n2)c1 [Compound 42] — 190-fold lower, 0.0841 µM
- CC(C)n1ncc2c(C(=O)N3CCCCC3)cc(-c3cccc(CN(C)CCN)c3)nc21 [Compound 43] — 90-fold lower, 0.176 µM
- CNCCN(C)Cc1cccc(-c2cc(C(=O)N[C@@H](C)c3ccccc3)c3cnn(C(C)C)c3n2)c1 [Compound 44] — 850-fold lower, 0.0186 µM
- CNCCN(C)Cc1cccc(-c2cc(Oc3ccccc3)c3cnn(C(C)C)c3n2)c1 [Compound 45] — 190-fold lower, 0.0841 µM
- CC(C)n1cnc2cc(-c3ccc(CN(C)CCN)cc3)ccc21 [Compound 46] — 1.6-fold lower, 10 µM
- CNCCN(C)Cc1cccc(-c2cc(C(=O)NCc3c(F)cccc3F)c3cnn(C(C)C)c3n2)c1 [Compound 47] — 710-fold lower, 0.0224 µM
- CNC(=O)Nc1cc(-c2cccc(CN(C)CCN)c2)nc2c1cnn2C(C)C [Compound 126] — 2000-fold lower, 0.00796 µM
- CCC(=O)c1cc(-c2cccc(CN(C)CCNC)c2)nc2c1cnn2C(C)C [Compound 128] — 510-fold lower, 0.0308 µM
- CS(=O)(=O)N1CCC(Cn2cnc3ccc(-c4ccc(CNCCN)cc4)cc32)CC1 [Compound 129] — within 1.5-fold, 12.9 µM
- CNCCN(C)Cc1cc(-c2cc(C(=O)NC3CCOCC3)c3cnn(C(C)C)c3n2)ccc1F [Compound 130] — 120-fold lower, 0.131 µM
- Cc1ccc(-n2cnc3cc(-c4ccc(CNCCN)cc4)ccc32)cc1 [Compound 131] — 5.6-fold lower, 2.84 µM
- COc1ccc(Cn2cnc3ccc(-c4ccc(CNCCN)cc4)cc32)cc1 [Compound 132] — 2.2-fold lower, 7.21 µM
- CNCCN(C)Cc1cccc(-c2cc(NC(=O)NC3CCOCC3)c3cnn(C(C)C)c3n2)c1 [Compound 133] — 1300-fold lower, 0.012 µM
- CC(C)n1ncc2c(C(=O)NCc3ccccc3)cc(-c3cccc(CNCCN)c3)cc21 [Compound 134] — 47-fold lower, 0.334 µM
- COc1cccc(Cc2nc3ccc(-c4ccc(CNCCN)cc4)cc3n2C(C)C)c1 [Compound 135] — 3.2-fold lower, 4.92 µM
- CC(C)n1ncc2c(C(=O)N[C@@H](C)c3ccccc3)cc(-c3cccc(CN(C)CCN)c3)nc21 [Compound 136] — 350-fold lower, 0.0455 µM
- CNCCN(C)Cc1cccc(-c2cc(C(=O)NCc3cnn(C)c3C)c3cnn(C(C)C)c3n2)c1 [Compound 137] — 2600-fold lower, 0.00606 µM
- CNCCN(C)Cc1cccc(-c2cc(NC(=O)NC)c3cnn(C(C)C)c3n2)c1 [Compound 138] — 840-fold lower, 0.0187 µM
- CNCCN(C)Cc1cccc(-c2cc(NS(=O)(=O)N(C)C)c3cnn(C(C)C)c3n2)c1 [Compound 139] — 420-fold lower, 0.0373 µM
- Cc1cc2cc(-c3ccc(CNCCN)cc3)ccc2[nH]1 [Compound 141] — 2.7-fold lower, 5.81 µM
- CN(CCN)Cc1cccc(-c2cc(C(=O)NC3CCOCC3)c3cnn(C4CC4)c3n2)c1 [Compound 142] — 1700-fold lower, 0.00943 µM
- Cc1cccc(CCn2cnc3ccc(-c4ccc(CNCCN)cc4)cc32)c1 [Compound 143] — 2.8-fold lower, 5.62 µM
- CN(CCN)Cc1cccc(-c2cc(C(=O)NC3CCOCC3)c3cnn(CC(F)(F)F)c3n2)c1 [Compound 144] — 590-fold lower, 0.0267 µM
- N#Cc1cccc(Cn2cnc3ccc(-c4ccc(CNCCN)cc4)cc32)c1 [Compound 145] — 2-fold lower, 8 µM
- CC(C)n1ncc2c(C(=O)NC3CCOCC3)cc(-c3cccc(CN(C)CCN)c3)nc21 [Compound 148] — 1400-fold lower, 0.0109 µM
- CC(C)n1ncc2c(C(=O)NCc3ccncc3)cc(-c3cccc(CNCCN)c3)nc21 [Compound 150] — 58-fold lower, 0.274 µM
- CNCCN(C)Cc1cccc(-c2cc(N)c3cnn(C(C)C)c3n2)c1 [Compound 151] — 170-fold lower, 0.0921 µM
- CC(C)n1ncc2c(C(=O)N3CCCCC3)cc(-c3cccc(CNCCN)c3)nc21 [Compound 153] — 81-fold lower, 0.195 µM
- CNCCN(C)Cc1cccc(-c2cc(OCC(F)(F)F)c3cnn(C(C)C)c3n2)c1 [Compound 154] — 340-fold lower, 0.0469 µM
- CC(C)n1ncc2c(C(=O)NCc3ccccc3)cc(-c3cccc(CNCCN)c3)nc21 [Compound 155] — 140-fold lower, 0.115 µM
- NCCNCc1ccc(-c2cnc3c(c2)CCC(=O)N3)cc1 [Compound 156] — 6.1-fold lower, 2.61 µM
- NCCNCc1ccc(-c2ccc3ncn(C4CCNCC4)c3c2)cc1 [Compound 157] — 3.4-fold lower, 4.6 µM
- CN(CCN)Cc1cccc(-c2cc(C(=O)NC3CCOCC3)c3cnn(C)c3n2)c1 [Compound 158] — 410-fold lower, 0.0385 µM
- CC(C)n1ncc2c(C(=O)NCc3ccccc3F)cc(-c3cccc(CNCCN)c3)nc21 [Compound 159] — 90-fold lower, 0.175 µM
- CC(C)n1ncc2c(C(=O)N[C@@H](C)c3ccccc3)cc(-c3cccc(CNCCN)c3)nc21 [Compound 160] — 560-fold lower, 0.028 µM
- CCS(=O)(=O)Nc1cc(-c2cccc(CN(C)CCNC)c2)nc2c1cnn2C(C)C [Compound 161] — 93-fold lower, 0.169 µM
